From PMC11625327, “Molecular determinants of neuropeptide-mediated activation mechanisms in tachykinin NK1 and NK2 receptors” (The Journal of Biological Chemistry, 2024) come the findings set out here.

In general, Emax refers to the maximal effect, on the per cent scale that the assay sets.

Common to all, as to format: cell-based
Assay [1] has as its target T1, NK1R F264Y M291F (Homo sapiens, UniProt P25103, F264Y/M291F).
T1 construct: host or cells: COS7
As to the kind of experiment: IP3 accumulation assay (Gq). Particulars: COS-7, COS7 cells, [3H]inositol, 10 mM LiCl, 150 min 37 °C, mean ± SEM of three independent experiments. Here is the method:
(§1) COS7 cells were tested monthly for mycoplasma and kept negative. COS7 cells were plated in either clear, white, or white with clear bottom 96-well plates that were coated with poly-D-lysine (Sigma-Aldrich) 30 min prior to cell seeding (20,000 cells/well). The following day plates were transiently transfected using calcium precipitation with 200 ng/well DNA in a culture medium with the addition of 100μM (final concentration) chloroquine. Transfection was stopped 5 h later with the addition of a fresh maintenance medium. Fig. […] COS7 cells seeded in clear 96-well plates were incubated with 0.5 μCi/ml myo [3H]inositol (Perkin Elmer) in 100 μl growth medium overnight following the transfection. The subsequent day cells were washed twice with 200 μl/well HBSS (GIBCO, Life Technologies) and preincubated for 5 min at 37 °C with 100 μl/well HBSS buffer supplemented with 10 mM LiCl. Ligand addition was followed by 150 min incubation at 37 °C. To stop ligand incubation, cells were lysed with 40 μl 10 mM formic acid followed by 30 min incubation on ice. Thirty five microliters of the lysate was transferred to white 96-well plates together with 60 μl of 1:8 diluted YSi SPA scintillation beads (Perkin Elmer). Plates were sealed and vigorously shaken for 15 min, followed by 5 min centrifugation at 1500 rpm. Measurements (scintillation) were recorded on a Microbeta (PerkinElmer) after a 4 h delay and determinations were made in duplicates. All dose-response curves have been calculated using Prism 10 software (GraphPad Software, www.graphpad.com) nonlinear regression with four parameters. All data are shown as mean ± SEM unless stated otherwise and consist of two technical replicates from three biological replicates.

For assay [2], the target named is T2, NK1R M291F (Homo sapiens, UniProt P25103, M291F).
T2 construct: host or cells: COS7
T2 sequence (P25103 whole entry M291F): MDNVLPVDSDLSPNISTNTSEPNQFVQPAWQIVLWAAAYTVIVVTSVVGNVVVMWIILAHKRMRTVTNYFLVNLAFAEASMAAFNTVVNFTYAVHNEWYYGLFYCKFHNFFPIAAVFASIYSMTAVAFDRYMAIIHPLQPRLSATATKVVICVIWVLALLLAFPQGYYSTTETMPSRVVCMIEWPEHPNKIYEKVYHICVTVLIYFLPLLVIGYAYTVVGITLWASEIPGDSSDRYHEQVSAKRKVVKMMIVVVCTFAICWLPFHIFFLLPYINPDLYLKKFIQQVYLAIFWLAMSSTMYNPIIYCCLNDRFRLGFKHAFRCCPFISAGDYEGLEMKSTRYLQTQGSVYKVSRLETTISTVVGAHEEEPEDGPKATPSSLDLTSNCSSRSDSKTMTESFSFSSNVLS
As to the kind of experiment: IP3 accumulation assay (Gq). Particulars: COS-7, COS7 cells, [3H]inositol, 10 mM LiCl, 150 min 37 °C, mean ± SEM of three independent experiments. On the procedure:
as §1

The target of the next assay is T3, NK1R F264Y (Homo sapiens, UniProt P25103, F264Y).
T3 construct: host or cells: COS7
T3 sequence (P25103 whole entry F264Y): as the sequence (P25103 whole entry M291F) above, with F264Y, F291M counted along it
In words: IP3 accumulation assay (Gq). Particulars: COS-7, COS7 cells, [3H]inositol, 10 mM LiCl, 150 min 37 °C, mean ± SEM of three independent experiments. Here is the method:
as §1

For assay [3], the target named is T1, NK1R F264Y M291F. As to the kind of experiment: BRET-based cAMP assay (Gs). Particulars: COS-7, COS7 cells, CAMYEL BRET sensor, four-parameter fit, mean ± SEM of three independent experiments. On the procedure: (§2) COS7 cells were tested monthly for mycoplasma and kept negative. COS7 cells were plated in either clear, white, or white with clear bottom 96-well plates that were coated with poly-D-lysine (Sigma-Aldrich) 30 min prior to cell seeding (20,000 cells/well). The following day plates were transiently transfected using calcium precipitation with 200 ng/well DNA in a culture medium with the addition of 100μM (final concentration) chloroquine. Transfection was stopped 5 h later with the addition of a fresh maintenance medium. Fig. […] The intracellular level of cAMP was monitored in real-time using BRET. This was achieved by implementing a construct consisting of a cAMP binding protein (exchange protein activated by cAMP [EPAC]) which has been flanked by a BRET pair consisting of Rluc and yellow fluorescent protein. This construct is called CAMYEL (cAMP sensor using yellow fluorescent protein-EPAC-Rluc) and enables cAMP production to be sensed as EPAC changes conformation in response to increasing levels of cAMP, ultimately resulting in a loss of BRET signal. […] The BRET signal was calculated as the ratio of emission intensity at 535 nm (citrine) to the emission intensity at 475 nm (luciferase). […] All dose-response curves have been calculated using Prism 10 software (GraphPad Software, www.graphpad.com) nonlinear regression with four parameters. […]

In assay [4] the target is T2, NK1R M291F. In words: BRET-based cAMP assay (Gs). Particulars: COS-7, COS7 cells, CAMYEL BRET sensor, four-parameter fit, mean ± SEM of three independent experiments. On the procedure:
as §2

T1 sequence (P25103 whole entry F264Y/M291F): as the sequence (P25103 whole entry M291F) above, with F264Y counted along it

With `CSCC[C@H](NC(=O)[C@H](CC(C)C)NC(=O)CNC(=O)[C@@H](NC(=O)[C@H](Cc1ccccc1)NC(=O)[C@H](CO)NC(=O)[C@H](CC(=O)O)NC(=O)[C@@H](NC(=O)[C@H](CCCCN)NC(=O)[C@@H](N)Cc1c[nH]cn1)[C@@H](C)O)C(C)C)C(N)=O` [NKA, neurokinin A], the Emax turned out to be 102 ± 11% on NK1R F264Y M291F [1]; 102 ± 12.7% at NK1R M291F [2]; 105 ± 6.3% at NK1R F264Y; 125% on NK1R F264Y M291F [3]; 99.9% at NK1R M291F [4].
